Results on 5 compounds are retold here after patent US9988407B2, “Prodrugs of prostate specific membrane antigen (PSMA) inhibitor” (THE JOHNS HOPKINS UNIVERSITY, priority 2014, dated 2018).

Entries after “also recorded” stand apart in the source; their conditions may differ.

Series [1] can be described thus: PK of JAM0388 after oral gavage, 2-PMPA in brain and plasma. To be noted: 30 mg/kg equivalent of 2-PMPA by oral gavage. In kind it is in vivo.
Series [2] can be described thus: Metabolic stability in mouse liver microsomes. In kind it is in vitro ADME. As to conditions: 10 μM, 37° C. How it is done:
(§1) For metabolic stability, plasma (mouse, dog, monkey and human) and liver microsomes (mouse, dog, monkey and human) were used. For stability, prodrugs (10 μM) were spiked in each matrix and incubated in an orbital shaker at 37° C. At predetermined times (0, 30 and 60 min), 100 μL aliquots of the mixture in triplicate were removed and the reaction quenched by addition of three times the volume of ice cold acetonitrile spiked with the internal standard (losartan 5 μM). The samples were vortexed for 30 s and centrifuged 12000 g for 10 min. 50 μL supernatant diluted with 50 μL water was transferred to a 250 μL polypropylene vial sealed with a Teflon cap. Prodrug disappearance was monitored over time using a liquid chromatography and tandem mass spectrometry (LC/MS/MS) method as described below.
(§2) For LC/MS/MS, prodrugs were separated with Thermo Scientific Accela UPLC system coupled to Accela open autosampler on an Agilent C18 (100×2.1 mm id) UPLC column. The autosampler was temperature controlled and operating at 10° C. The mobile phase used for the chromatographic separation was composed of acetonitrile/water containing 0.1% formic acid and was run at a flow rate of 0.5 mL/minute for 4.5 minutes using gradient elution. The column effluent was monitored using TSQ Vantage triple-quadrupole mass spectrometric detector, equipped with an electrospray probe set in the positive ionization mode. Samples were introduced into the ionization source through a heated nebulized probe (350° C.).
(§3) For quantification of compound remaining, disappearance of prodrugs was measured from ratio of peak areas of analyte to IS. Percentage remaining was calculated in the following manner: […]

Series [3] in a line: Metabolic stability in human plasma. The class given is in vitro ADME. To be noted: 10 μM, 37° C. As for the experimental part: as §1, §2, §3
A short description of series [4]: Metabolic stability in mouse liver S9. As to conditions: Mouse S9, 10 μM, 37° C. In kind it is in vitro ADME.
Series [5] is described as follows: Metabolic stability in human liver microsomes. To be noted: 10 μM, 37° C. In kind it is in vitro ADME. As for the experimental part: as §1, §2, §3
A general note: Liver microsomes are vesicles of endoplasmic reticulum, rich in cytochrome P450 enzymes.

A short description of series [6]: In vitro metabolic stability screen in plasma and liver subcellular fractions (results in words). In kind it is in vitro ADME. As to conditions: 60 min incubation. As for the experimental part:
as §1, §2
For quantification of compound remaining, disappearance of prodrugs was measured from ratio of peak areas of analyte to IS. Percentage remaining was calculated in the following manner:
In general, the prodrugs were screened by an in vitro metabolic stability screen, and if positive, followed by an in vivo single time point pharmacokinetic study, and in select cases, an in vivo full time course pharmacokinetic study (FIG. 3). In this Example, the four acidic functional groups in 2-PMPA were systematically capped. The carboxylic acids were first masked with simple alkyl esters (Compounds 1, 2, and 3). In vitro chemical and metabolic stability of the prodrugs then were conducted, following 60 min incubation in plasma stability screens for prodrugs.

Series [7] is described as follows: Metabolic stability in mouse plasma. The class given is in vitro ADME. As to conditions: 10 μM, 37° C. As for the experimental part:
as §1, §2, §3

A short description of series [8]: Chemical stability in HBSS buffer (pH 7.4) / simulated gastric fluid. In kind it is physicochemical. As to conditions: for Percentage remaining: HBSS, 10 μM, 37° C. How it is done:
The chemical stability of prodrugs was evaluated using simulated gastric fluid (pH 1.2) and Hanks' Balanced Salt Solution (HBSS) buffer (pH 7.4). Briefly, prodrugs were spiked (10 μM) in respective solutions and incubated at 37° C. for 1 h. At predetermined time points (0, 30 and 60 min), aliquots of 100 μL were removed and diluted with 100 μL of water. Prodrug disappearance was monitored using the developed liquid chromatography and tandem mass spectrometry (LC/MS/MS) method described below.
as §2, §3

Series [9] is described as follows: In vivo pharmacokinetics in mice, peroral, bioanalysis method 2 (2-PMPA release). To be noted: for stability of carboxylic esters in vivo: mouse. As for the experimental part:
Blood was obtained via cardiac puncture and tissue dissected at 0 min, 15 min, 30 min, 1 h, 2 h, and 4 h post dose (n=3 per time point). Single time point studies were conducted at 30 min (N=3) following dosing. Plasma was harvested from blood by centrifugation. Mean concentration-time data was used for pharmacokinetic (PK) analysis. Non-compartmental-analysis module in WinNonlin® (version 5.3) was used to assess pharmacokinetic parameters. Peak plasma concentrations (Cmax) and time to Cmax (Tmax) were the observed values. Area under the curve (AUC) was calculated by log-linear (p.o.) trapezoidal rule to the end of sample collection (AUClast) and extrapolated to infinity (AUC0-∞) by dividing the last quantifiable concentration by the terminal disposition rate constant (ke). […] The tissues were stored in −20° C. for 1 h and then homogenized. The calibration curve for the tissues was developed using naïve mouse brains from untreated animals as a matrix. For sciatic nerve, the nerves were weighed and homogenized in 50 μL methanol and the calibration curve was developed using naïve sciatic nerves from untreated animals as a matrix. The samples were vortexed and centrifuged. […] Supernatant was dried under a gentle stream of nitrogen at 45° C. and the residue reconstituted with 75 μL of acetonitrile and vortexed. 25 μL of derivatizing agent N-tert-Butyldimethysilyl-N-methyltrifluoro-acetamide (MTBSTFA) was added to microcentrifuge tubes, vortexed, and heated at ˜60 OC for 40 min. At the end of 40 min, the derivatized samples ˜75 μL were transferred to a 250 μL polypropylene vials and were analyzed via LC/MS/MS. Chromatographic analysis was performed using an Accela™ ultra high-performance system consisting of an analytical pump, and an autosampler coupled with TSQ Vantage mass spectrometer (Thermo Fisher Scientific Inc., Waltham Mass.). […] The total run time for each analyte was 5.0 min. Chromatographic analysis will be performed on Accela UPLC.

The nature of series [10]: In vivo pharmacokinetics in mice, peroral, bioanalysis method 1 (total prodrug exposure). To be noted: mice, oral dosing. How it is done:
Blood was obtained via cardiac puncture and tissue dissected at 0 min, 15 min, 30 min, 1 h, 2 h, and 4 h post dose (n=3 per time point). Single time point studies were conducted at 30 min (N=3) following dosing. Plasma was harvested from blood by centrifugation. Mean concentration-time data was used for pharmacokinetic (PK) analysis. Non-compartmental-analysis module in WinNonlin® (version 5.3) was used to assess pharmacokinetic parameters. Peak plasma concentrations (Cmax) and time to Cmax (Tmax) were the observed values. Area under the curve (AUC) was calculated by log-linear (p.o.) trapezoidal rule to the end of sample collection (AUClast) and extrapolated to infinity (AUC0-∞) by dividing the last quantifiable concentration by the terminal disposition rate constant (ke). Terminal half-life (t1/2) was estimated from first order kinetics: t1/2=0.693/ke.
Briefly, prior to extraction, frozen samples were thawed on ice. For plasma extraction, 50 μL of the calibration standards or samples were transferred into silanized microcentrifuge tubes. Sample preparation involved a single liquid extraction by addition of 300 μL of methanol as extraction solution with internal standard (i.e., 5 μM of 2-PMSA in methanol), followed by vortexing for 30 s and then centrifugation at 12000 g for 10 min. Supernatant was transferred (˜250 μL) and evaporated to dryness at 40° C. under a gentle stream of nitrogen. The residue was reconstituted with 100 μL of derivatizing agent, n-butanol with 3N HCl, and samples were vortexed. The samples were heated at ˜60 OC in a shaking water bath for 30 min. At the end of 30 min, the derivatized samples were allowed to cool at room temperature and dried again for removal of derivatizing reagent, under a gentle stream of nitrogen. The residue was reconstituted in 100 μL of 30% acetonitrile in water v/v. The samples were vortexed and centrifuged again. ˜80 μL supernatant was transferred to a 250 μL polypropylene vial sealed with a Teflon cap and a volume of 10 μL was injected onto the ultra-performance liquid chromatography (UPLC) instrument for quantitative analysis. Chromatographic analysis was performed using an Accela™ ultra high-performance system consisting of an analytical pump, and an autosampler coupled with TSQ Vantage mass spectrometer (Thermo Fisher Scientific Inc., Waltham Mass.). […] The mobile phase used was composed of 0.1% formic acid in acetonitrile and 0.1% formic acid in H2O with gradient elution, starting with 20% (organic) linearly increasing to 65% up to 2.5 min, maintaining at 65% (2.5-3.5 min) and reequilibrating to 30% by 5 min. The total run time for each analyte was 5.0 min.

Take “4-((diphenoxyphosphoryl)methyl)-5-(((isopropoxycarbonyl)oxy)methoxy)-5-oxopentanoic acid [Compound 30]”: in series [1] (brain at 30 min and 5 h), the “brain levels of 2-PMPA” value is reported as “low at both time points”. For the same compound, the “release of 2-PMPA in plasma” value in series [1] (plasma at 30 min and 5 h) was “excellent release of 2-PMPA in plasma”.
Turning to `COC(=O)CCC(CP(=O)(O)O)C(=O)OC` (centres unmarked) [Compound 1, [5-(Methyloxy)-2-(methoxycarbonyl)-5-oxopentyl]phosphonic acid], the Percentage remaining is listed as 100% in series [2] (0 min); 102% in series [2] (30 min); 103% in [2] (60 min); 100% in [3] (0 min); 100% in series [3] (30 min); 86% in [3] (60 min). Besides, the Percentage remaining in series [4] (0 min) stood at 100%; in [4] (30 min) it was 101%; in [4] (60 min) it was 86%; in series [5] (0 min) it was 100%; in series [5] (30 min), 90%; in series [5] (60 min), 96%. Further, the Percentage remaining in [7] (0 min) is 100%; in series [7] (30 min), 102%; in [7] (60 min) it was 101%; in series [8] (0 min), 100%; in series [8] (30 min), 92%; in [8] (60 min), 94%. For the same compound, the figures for the “in vitro metabolic stability” value in [6] and in [6] (listed as JHU 2106) were “too stable; also recorded: stable in plasma” and “too stable”, respectively. Besides, in [9], the “stability of carboxylic esters in vivo” value is “too stable in vivo”.
For `CCOC(=O)CCC(CP(=O)(O)O)C(=O)OCC` (centres unmarked) [Compound 2, [5-Ethoxy-2-(ethoxycarbonyl)-5-oxopentyl]phosphonic acid], the “permeability in vivo” value in [10] is “showed the most permeability”. Also, the Percentage remaining in [2] (0 min) amounted to 100%; in [2] (30 min) it was 99%; in series [2] (60 min), 88%; in series [3] (0 min), 100%; in series [3] (30 min) it was 81%; in [3] (60 min), 59%. Moreover, the Percentage remaining in [4] (0 min) stood at 100%; in series [4] (30 min), 103%; in series [4] (60 min) it was 103%; in [5] (0 min) it was 100%; in series [5] (30 min), 88%; in [5] (60 min), 73%. Moreover, the Percentage remaining is reported as 100% in series [7] (0 min), 99% in series [7] (30 min) and 83% in [7] (60 min). In addition, the “in vitro metabolic stability” value in [6] is recorded as “too stable”. Also, the “stability of carboxylic esters in vivo” value in series [9] is “too stable in vivo”.
As to `CCCOC(=O)CCC(CP(=O)(O)O)C(=O)OCCC` (centres unmarked) [Compound 3, [5-Oxo-5-propoxy-2-(propoxycarbonyl)pentyl]phosphonic acid], in series [10], the “permeability in vivo” value is “then the propyl ester”. In [6], the “in vitro metabolic stability” value was “too stable”. Besides, the “stability of carboxylic esters in vivo” value in series [9] is recorded as “too stable in vivo”.
In the case of `CC(C)OC(=O)OC(C)OC(=O)C(CCC(=O)O)CP(=O)(OC(C)OC(=O)OC(C)C)OC(C)OC(=O)OC(C)C` (centres unmarked) [Compound 24], the Percentage remaining came out at 100% in series [2] (0 min); 1% in series [2] (30 min); 0% in series [2] (60 min); 100% in [3] (0 min); 106% in series [3] (30 min); 75% in series [3] (60 min). Also, the Percentage remaining in series [5] (0 min) is given as 100%; in [5] (30 min), 27%; in [5] (60 min), 8%; in [7] (0 min), 100%; in series [7] (30 min), 0%; in [7] (60 min), 0%. Besides, in series [6], the “in vitro metabolic stability” value is “instability in plasma and liver subcellular fractions”. Also, in series [8] (chemical hydrolysis / HBSS buffer), the “chemical stability” value is “sufficient chemical stability”. For the same compound, the “oral bioavailability” value in [9] (rodents and dogs) is “excellent oral bioavailability”.
